Results as given in patent EP0489933A1, “BILE ALCOHOL AND DRUG CONTAINING THE SAME AS ACTIVE INGREDIENT” (TSUMURA CO., LTD., priority 1990, dated 1992).

Tests used:
male mice of ddY line [1] = experiment: Blood oxygen and carbon dioxide partial pressure; format: in vivo; conditions: 20 mg/kg, i.p.; blood from abdominal aorta 60 minutes after administration
Experimental: In this experiment, 4-week-old male mice of ddY line (10 individuals per one group) were used after fasting treatment for 24 hours.
After 60 minutes of the administration of each compound of the present invention, each mouse was subjected to ventrotomy under anesthesia with Nembutal® (Dainabot Co., Ltd.; 50 mg/kg, i.p.) to collect blood from abdominal aorta, and the collected blood sample was immediately checked for its oxygen partial pressure (PO₂) and carbon dioxide partial pressure (PCO₂) using a blood-aerotonometer (Model 170, Ciba-Corning).

male mice of ddY line [2] = format: in vivo; conditions: 50 mg/kg, i.p., 60 minutes before KCN (3.0 mg/kg) tail intravenous injection; for Survival Time ±S.E.: time to respiratory arrest
[3] = test system: rats of diabetes mellitus; experiment: Blood sugar level in streptozotocin-induced diabetes mellitus; format: in vivo, male rats of Wistar line; conditions: 50 mg/kg, i.o.; administered for 1 week beginning 1 week after streptozotocin (40 mg/kg); serum
Experimental: In this experiment, 8-week-old male rats of Wistar line (5 individuals per one group) were used after rearing them for 1 week with normal feed. Streptozotocin (40 mg/kg) was administered by tail intravenous injection to obtain rats of diabetes mellitus. Beginning after 1 week of the streptozotocin administration, oral administration of each test drug has been carried out for 1 week, followed by 24 hours of fasting. Thereafter, blood sample was collected from lower abdominal vena cava under anesthesia with Nembutal® (1 ml/kg, i.p.). Serum samples were prepared from the thus collected blood samples and checked for their blood sugar levels, with the results shown in Table 9.

male rats of SHR line = experiment: Blood pressure in SHR rats; format: in vivo; conditions: 10 mg/kg, p.o., 2 weeks
Experimental: In this experiment, 12-week-old male rats of SHR line (5 to 6 individuals per one group) were used after rearing them for 1 week with normal feed. Oral administration of each test drug has been carried out for 2 weeks and then blood pressure (mmHg) was measured using a small animal hemomanometer (UR-1000).

Qualitative solubility = format: physicochemical
[4] = Blood plasma clotting time after oral administration; format: in vivo, male rats of Wistar line; conditions: 30 mg/kg, p.o.; blood collected 90 minutes after administration; calcium chloride, 37°C
Experimental: In this experiment, 9-week-old male rats of Wistar line (5 to 6 individuals per one group) were used after rearing them for 1 week with normal feed. After 24 hours of fasting, each test drug was administered orally and, 90 minutes thereafter, blood sample was collected from lower abdominal vena cava of each rat under anesthesia with Nembutal® (1 ml/kg, i.p.). Blood samples obtained in this way were checked for their blood clotting time and erythrocyte deformability.
Measuring procedures are as follows.
Blood clotting time ... Collected blood sample is centrifuged at 3,500 rpm for 10 minutes to obtain blood plasma. The blood plasma is pre-incubated for 1 minute in a water bath controlled at 37°C, mixed with calcium chloride and then shaken at 20 second intervals to measure a time required for its clotting.

SMILES	Carbon Dioxide Partial Pressure (male mice of ddY line [1]) [mmHg]	Oxygen Partial Pressure (male mice of ddY line [1]) [mmHg]	Lethality (%) (male mice of ddY line [2])	Survival Time ±S.E. (male mice of ddY line [2]) [s]	Blood Sugar Level ± S.E. [3] [mg/dL]	Blood Pressure ±S.E. Average (male rats of SHR line) [mmHg]	Blood Pressure ±S.E. Maximum (male rats of SHR line) [mmHg]	solubility in H₂O (Qualitative solubility)	Plasma Clotting Time ± S.E. [4] [s]
C[C@H](CC[C@H]1OC[C@H]1CO)[C@H]1CC[C@H]2[C@@H]3[C@H](O)C[C@@H]4C[C@H](O)CC[C@]4(C)[C@H]3C[C@H](O)[C@]12C [Example 4, (24R)-(25R)-(+)-24,26-epoxy-5β-cholestane-3α,7α,12α,27-tetrol]	39.1	85.3	80	98.1 ± 13.1	181 ± 8.9	153 ± 2.8	205 ± 7.8	insol in H₂O	–
C[C@H](CC[C@@H](O)C1COC1)[C@H]1CC[C@H]2[C@@H]3[C@H](O)C[C@@H]4C[C@H](O)CC[C@]4(C)[C@H]3C[C@H](O)[C@]12C [Example 5, (24R)-(+)-26,27-epoxy-5β-cholestane-3α,7α,12α,24-tetrol]	39.9	87.1	80	99.5 ± 7.21	122 ± 7.8	148 ± 3.5	181 ± 3.5	insol in H₂O	–
C[C@H](CC[C@H](O)CCO)[C@H]1CC[C@H]2[C@@H]3[C@H](O)C[C@@H]4C[C@H](O)CC[C@]4(C)[C@H]3C[C@H](O)[C@]12C [Illustrative Example 3, 27-nor-(24S)-(+)-3α,7α,12α,24,26-pentahydroxy-5β-cholestane]	40.8	89.9	80	97.2 ± 8.51	165 ± 6.6	141 ± 3.2	199 ± 2.6	–	213 ± 5.5
